Measured values from the supplement of paper PMC10307832.

What was measured:
Test in all cases: relative viability (nuclei count vs DMSO), 5 days (fraction); higher = more cells survive
Linsitinib + Crizotinib = compound: C[C@]1(O)C[C@@H](c2nc(-c3ccc4ccc(-c5ccccc5)nc4c3)c3c(N)nccn32)C1 [Linsitinib] + C[C@@H](Oc1cc(-c2cnn(C3CCNCC3)c2)cnc1N)c1c(Cl)ccc(F)c1Cl [Crizotinib] (partner 1 µM)
How it was run: (§1)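 Lung cancer cell lines, seeded in 1536-well plates, were treated the following day by pin tool with a single drug or with five library-drug doses (not always all listed) in √10 steps on top of a fixed anchor-drug dose. Cells were fixed and nuclei stained in one step after 5 days, and nuclei were counted. Relative viability is the nuclei count for treated wells divided by that for vehicle wells, reported as medians of duplicate plates.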

Ispinesib + Alpelisib = compound: Cc1ccc(C(=O)N(CCCN)[C@@H](c2nc3cc(Cl)ccc3c(=O)n2Cc2ccccc2)C(C)C)cc1 [Ispinesib] + Cc1nc(NC(=O)N2CCC[C@H]2C(N)=O)sc1-c1ccnc(C(C)(C)C(F)(F)F)c1 [Alpelisib] (partner 2 µM)
How it was run: as §1

Linsitinib + Foretinib = compound: C[C@]1(O)C[C@@H](c2nc(-c3ccc4ccc(-c5ccccc5)nc4c3)c3c(N)nccn32)C1 [Linsitinib] + COc1cc2c(Oc3ccc(NC(=O)C4(C(=O)Nc5ccc(F)cc5)CC4)cc3F)ccnc2cc1OCCCN1CCOCC1 [Foretinib] (partner 0.25 µM)
How it was run: as §1

Linsitinib + Olaparib = compound: C[C@]1(O)C[C@@H](c2nc(-c3ccc4ccc(-c5ccccc5)nc4c3)c3c(N)nccn32)C1 [Linsitinib] + O=C(c1cc(Cc2n[nH]c(=O)c3ccccc23)ccc1F)N1CCN(C(=O)C2CC2)CC1 [Olaparib] (partner 8 µM)
How it was run: as §1

| Cell Line | relative viability (Linsitinib + Crizotinib; first compound 0.01 µM) | relative viability (Linsitinib + Crizotinib; first compound 0.03162 µM) | relative viability (Linsitinib + Crizotinib; first compound 0.1 µM) | relative viability (Linsitinib + Crizotinib; first compound 0.3162 µM) | relative viability (Linsitinib + Crizotinib; first compound 1 µM) | relative viability (Ispinesib + Alpelisib; first compound 0.001 µM) | relative viability (Ispinesib + Alpelisib; first compound 0.003162 µM) | relative viability (Ispinesib + Alpelisib; first compound 0.01 µM) | relative viability (Ispinesib + Alpelisib; first compound 0.03162 µM) | relative viability (Ispinesib + Alpelisib; first compound 0.1 µM) | relative viability (Linsitinib + Foretinib; first compound 0.01 µM) | relative viability (Linsitinib + Foretinib; first compound 0.03162 µM) | relative viability (Linsitinib + Foretinib; first compound 0.1 µM) | relative viability (Linsitinib + Foretinib; first compound 1 µM) | relative viability (Linsitinib + Olaparib; first compound 0.01 µM) | relative viability (Linsitinib + Olaparib; first compound 0.03162 µM) | relative viability (Linsitinib + Olaparib; first compound 0.1 µM) | relative viability (Linsitinib + Olaparib; first compound 0.3162 µM) | relative viability (Linsitinib + Olaparib; first compound 1 µM) | relative viability (Linsitinib + Foretinib; first compound 0.3162 µM) |
| --- | --- | --- | --- | --- | --- | --- | --- | --- | --- | --- | --- | --- | --- | --- | --- | --- | --- | --- | --- | --- |
| NCI-H2009 | 0.988 | 1.04 | 1.06 | 0.975 | 1.04 | 1.16 | 1.18 | 1.33 | 1.04 | 0.463 | 1.25 | 1.18 | 1.26 | 1.24 | 0.652 | 0.672 | 0.744 | 0.533 | 0.695 | – |
| NCI-H2023 | 0.57 | 0.474 | 0.753 | 0.374 | 0.359 | 0.65 | 0.606 | 0.659 | 0.5 | 0.18 | 0.864 | 0.546 | 0.835 | 0.515 | 0.468 | 0.39 | 0.617 | 0.378 | 0.453 | 0.512 |
| NCI-H2085 | 0.956 | 0.939 | 0.999 | 0.68 | 0.763 | 0.997 | 1.04 | 1.04 | 1.02 | 0.688 | 0.883 | 0.889 | 0.931 | 0.898 | 0.743 | 0.795 | 0.901 | 0.713 | 0.805 | 0.891 |
| NCI-H2087 | 0.763 | 1.01 | 0.836 | 0.842 | 0.729 | 0.992 | 1.2 | 1.28 | 1.02 | 0.159 | 1 | 0.995 | 1.01 | 0.967 | 0.572 | 0.639 | 0.609 | 0.51 | 0.47 | 0.813 |
| NCI-H2126 | 0.972 | 1.06 | 0.988 | 0.841 | 0.903 | 0.765 | 0.811 | 0.901 | 0.742 | 0.813 | 1.11 | 1.28 | 1.05 | 1.06 | 0.962 | 0.957 | 0.934 | 0.779 | 0.862 | 1.06 |
| NCI-H2170 | 1.12 | 1.02 | 1.2 | 0.89 | 1.11 | 0.892 | 0.765 | 0.947 | 0.603 | 0.484 | 0.994 | 1.05 | 0.974 | 0.963 | 0.533 | 0.519 | 0.598 | – | 0.506 | 0.773 |
| NCI-H2228 | 0.411 | 0.419 | 0.399 | 0.298 | 0.398 | 0.632 | 0.582 | 1.14 | 0.522 | 0.325 | 0.86 | 0.845 | 0.735 | 0.619 | 0.763 | 0.601 | 0.735 | 0.379 | 0.477 | 0.746 |
| NCI-H2347 | 0.705 | 0.84 | 0.715 | 0.589 | 0.669 | 1.04 | 1.13 | 1.18 | 0.94 | 0.655 | 0.838 | 0.874 | 0.741 | 0.967 | 0.584 | 0.687 | 0.598 | 0.608 | 0.596 | 0.892 |
| NCI-H2405 | 0.878 | 0.772 | 0.794 | 0.67 | 0.769 | 0.922 | 0.647 | 0.763 | 0.717 | 0.364 | 1.01 | 1.04 | 1.06 | 0.813 | 0.881 | 0.879 | 0.886 | 0.705 | 0.699 | 0.965 |
| NCI-H3122 | 0.261 | 0.281 | 0.282 | 0.323 | 0.323 | 0.783 | 0.86 | 0.778 | 0.897 | 0.223 | 0.913 | 0.945 | 0.978 | 0.907 | 0.557 | 0.541 | 0.547 | – | 0.503 | 0.874 |
| PC-3 [JPC-3] | 1.05 | 0.967 | 0.974 | 0.879 | 0.84 | 0.992 | 1.09 | 1.07 | 1.06 | 1.11 | 1.04 | 1.03 | 1.04 | 0.922 | 1.16 | 1.1 | 1.2 | 1.04 | 1.02 | 0.951 |
| PC-14 | 0.837 | 0.914 | 0.916 | 0.869 | 0.794 | 1.01 | 1.05 | 1.05 | 0.942 | 0.174 | 0.888 | 0.912 | 0.995 | 0.901 | 0.26 | 0.177 | 0.303 | 0.233 | 0.263 | 0.626 |
| RERF-LC-KJ | 0.803 | 0.816 | 0.849 | 0.731 | 0.739 | 0.836 | 1.32 | 0.77 | 0.794 | 0.631 | 0.836 | 0.935 | 0.907 | 0.79 | 0.933 | 0.884 | 0.841 | 0.847 | 0.538 | 0.487 |
| SK-LU-1 | 0.805 | 0.752 | 0.859 | – | 0.993 | 1.08 | 1.01 | 1.15 | 0.773 | 0.383 | 0.813 | – | 0.804 | 0.72 | 0.428 | 0.419 | 0.552 | 0.41 | 0.468 | 0.712 |
| SK-MES-1 | 0.955 | 1.06 | 1.01 | 0.826 | 0.931 | 0.905 | 1.42 | 1.07 | 0.681 | 0.286 | 0.865 | 1.08 | 0.999 | 0.81 | 0.702 | 0.784 | 0.633 | 0.584 | 0.557 | 0.778 |
| SW 1573 | 0.801 | 0.921 | 0.796 | 0.817 | 0.577 | 1 | 0.816 | 1.07 | 0.893 | 0.255 | 0.959 | 0.912 | 0.764 | 0.628 | 0.497 | 0.563 | 0.432 | 0.329 | 0.348 | 0.744 |
